Data as given in patent US20060270603A1, “Amidated parathyroid hormone fragments and uses thereof” (Unigene Laboratories Inc., priority 2004, published 2006).
No end group written: not given here.

Key:
ovariectomized rats = experiment: Efficacy testing of PTH analogs in ovariectomized rats; format: in vivo, Sprague Dawley rats; conditions: for osteocalcin (bone formation marker): plasma; for proximal tibia trabecular bone mineral density (BMD) by pQCT: Week 20
Protocol: To compare their effects in bone, amidated fragments of human parathyroid hormone (PTH) were evaluated in the ovariectomized rat model. Aged female Sprague Dawley rats were subject to bilateral ovariectomy or sham surgery. The animals were held untreated for a period of 8 weeks to allow the development of osteopenia. At that point, the ovariectomized animals were segregated into groups, and each group received daily subcutaneous injection of either vehicle or one of the following PTH fragments: PTH[1-30]NH2, PTH[1-31]NH2, PTH[1-32]NH2, PTH[1-33]NH2, and PTH[1-34]NH2 at a dose of 9.7 nmol/Kg. Treatment continued for a period of twelve weeks. Primary measures of analyses were 1) bone mineral density (BMD) of the spine (L3-L6) as determined by Dual Energy X-Ray Absorptiometry (DXA), 2) trabecular BMD of the proximal tibia as determined by peripheral Quantitative Computed Tomography (pQCT)and 3) evaluation of cortical bone in the distal tibia by PQCT. Secondary measures included urinary deoxypyridinoline (bone resorption marker), plasma osteocalcin (bone formation marker), histomorphometry of trabecular bone from the fourth lumbar vertebra (L4) and cortical bone from the distal tibia, microcomputed tomography (μCT), and bone strength tests of the spine and femur. Bone strength analysis was done on the femoral midshaft and a lumbar vertebral body.
In other experiments involving an ovariectomized rat model for osteoporosis, good efficacy is shown for the pharmaceutical agents of the invention. For example, the groups used in the study were: Sham, OVX (ovariectomized rats), OVX+PTH(1-30)NH2, OVX+PTH(1-31)NH2, OVX +PTH(1-32)NH2, OVX +PTH(1-33)NH2 and OVX +PTH(1-34)NH2.

ovariectomized rat model = conditions: cited from earlier work
adenylyl cyclase (AC) = conditions: cited from earlier work
[1] = 9.7 nmol/Kg daily subcutaneous injection, twelve weeks

Substance	osteocalcin (bone formation marker) (ovariectomized rats)	cortical bone mass, bone formation on periosteal and endosteal bone surfaces (anabolic effect) (ovariectomized rats; rat, in vivo)	proximal tibia trabecular bone mineral density (BMD) by pQCT (ovariectomized rats)	bone formation rate/bone surface (BFR/BS) on the periosteal surface (ovariectomized rats; compared to OVX)	also measured
PTH[1-30]NH2: amidated fragment of human parathyroid hormone (PTH), 30 amino acids (SVSEIQLMHNLGKHLNSMERVEWLRKKLQD-NH2; UniProt P01270 32-61, looked up, fragment)	significant increase in osteocalcin was observed for all PTH fragment treated groups except for PTH(1-30)NH2	anabolic effect is weak			increase in lumbar BMD (L3-L6) by DXA relative to the vehicle-treated ovariectomized animals (ovariectomized rats; [1]): 13%; increase in maximal load, compression testing of a lumbar vertebral body, relative to vehicle-treated ovariectomized animals (ovariectomized rats; [1]): 53%; effect on bone mass and strength (conclusion) (ovariectomized rats; common dose): gain in bone mass that was of a smaller magnitude than the other fragments; bone formation rate/bone surface, trabecular bone (ovariectomized rats; histomorphometry): anabolic effects of all hPTH amide fragments except hPTH(1-30); trabecular area (trabecular bone mass) (ovariectomized rats; in contrast to OVX): increased trabecular bone mass in contrast to OVX except for the hPTH amide fragment (1-30); anabolic effectiveness overall (percent trabecular area, bone volume/total volume, trabecular thickness and number) (ovariectomized rats; micro-CT and histomorphometry): less anabolically effective than the other fragments; cortical analysis of the midshaft of the femur by pQCT (ovariectomized rats; rat, in vivo): all fragments to be effective except hPTH(1-30)NH2; indices of cortical bone strength derived from pQCT (ovariectomized rats; rat, in vivo): no effect
PTH[1-32]NH2: C-terminal amidated human parathyroid hormone analog; hPTH-(1-32) sequence is SEQ ID NO:20 (SVSEIQLMHNLGKHLNSMERVEWLRKKLQDVH-NH2; listed as Homo sapiens)		increased cortical bone mass	continue to increase		percent porosity of the intracortex (ovariectomized rats; compared to OVX): significantly increased when compared to OVX except hPTH(1-32) amide
PTH[1-33]NH2: C-terminal amidated human parathyroid hormone analog; hPTH-(1-33) sequence is SEQ ID NO:21 (SVSEIQLMHNLGKHLNSMERVEWLRKKLQDVHN-NH2; listed as Homo sapiens)		increased cortical bone mass	did not continue to increase	increased BFR/BS	
PTH[1-34]NH2: amidated fragment of human parathyroid hormone (PTH), 34 amino acids; hPTH-(1-34) sequence is SEQ ID NO:1	significantly more increase than PTH amide fragments (1-31) and (1-32)	increased cortical bone mass	continue to increase	increased BFR/BS	
Ser Val Ser Glu Ile Gln Leu Met His Asn Leu Gly Lys His Leu Asn Ser Met Glu Arg Val Glu Trp Leu Arg Lys Lys Leu Gln Asp Val-NH2 [PTH[1-31]NH2]		increased cortical bone mass	continue to increase	increased BFR/BS	restoration of bone loss (ovariectomized rat model): fully active; AC-stimulating activity (adenylyl cyclase (AC)): has only AC-stimulating activity; total area (ovariectomized rats; cortical bone): did not increase significantly except hPTH amide (1-31)
